Assay results as given in ChEMBL document CHEMBL5096151, “Phytocannabinoid Pharmacology: Medicinal Properties of Cannabis sativa Constituents Aside from the "Big Two"” (J Nat Prod, 2021).
pEC50, pIC50: −log10 of the molar value.

Experiments:
[1] = molecular target: T1, Transient receptor potential cation channel subfamily V member 1 (Homo sapiens, UniProt Q8NER1); test: Agonist activity at ionomycin-stimulated TRPV1 (unknown origin) activation
[2] = molecular target: T1, Transient receptor potential cation channel subfamily V member 1; test: Agonist activity at ionomycin-stimulated TRPV1 (unknown origin) activation assessed as efficacy relative to control
[3] = molecular target: T1, Transient receptor potential cation channel subfamily V member 1; test: Agonist activity at ionomycin-stimulated TRPV1 (unknown origin) channel desensitization in presence of capsaicin
[4] = molecular target: T2, Transient receptor potential cation channel subfamily V member 2 (Homo sapiens) (UniProt Q9Y5S1); test: Agonist activity at ionomycin-stimulated TRPV2 (unknown origin) activation assessed as efficacy relative to control
T2 sequence (whole entry): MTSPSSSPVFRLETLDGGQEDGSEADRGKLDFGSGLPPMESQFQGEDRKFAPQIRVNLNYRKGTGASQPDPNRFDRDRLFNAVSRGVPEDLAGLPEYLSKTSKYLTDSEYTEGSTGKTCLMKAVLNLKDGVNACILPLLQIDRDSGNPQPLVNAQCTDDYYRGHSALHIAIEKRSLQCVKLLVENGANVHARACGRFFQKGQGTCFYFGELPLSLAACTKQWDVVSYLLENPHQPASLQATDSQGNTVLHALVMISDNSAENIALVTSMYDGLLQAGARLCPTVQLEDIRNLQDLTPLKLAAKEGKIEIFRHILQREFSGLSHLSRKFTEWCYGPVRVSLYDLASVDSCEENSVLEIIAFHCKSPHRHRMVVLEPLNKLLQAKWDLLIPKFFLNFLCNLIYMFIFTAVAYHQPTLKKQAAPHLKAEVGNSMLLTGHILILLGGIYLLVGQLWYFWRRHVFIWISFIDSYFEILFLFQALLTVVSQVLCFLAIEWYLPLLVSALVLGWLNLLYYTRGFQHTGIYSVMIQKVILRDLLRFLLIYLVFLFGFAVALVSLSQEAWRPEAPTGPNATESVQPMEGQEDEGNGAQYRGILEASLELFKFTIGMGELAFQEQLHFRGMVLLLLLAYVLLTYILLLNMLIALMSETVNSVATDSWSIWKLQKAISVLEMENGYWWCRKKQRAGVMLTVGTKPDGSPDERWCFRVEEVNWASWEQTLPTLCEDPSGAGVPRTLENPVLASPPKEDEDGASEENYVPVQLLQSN

[5] = molecular target: T3, Transient receptor potential cation channel subfamily V member 2 (Homo sapiens, UniProt Q9Y5S1); test: Agonist activity at ionomycin-stimulated TRPV2 (unknown origin) channel desensitization in presence of lysophosphatidylcholine
T3 sequence (Q9Y5S1 whole entry): T2 sequence (whole entry)

[6] = molecular target: T4, Transient receptor potential cation channel subfamily V member 3 (Homo sapiens, UniProt Q8NET8); test: Agonist activity at ionomycin-stimulated TRPV3 (unknown origin) activation
T4 sequence (Q8NET8 whole entry): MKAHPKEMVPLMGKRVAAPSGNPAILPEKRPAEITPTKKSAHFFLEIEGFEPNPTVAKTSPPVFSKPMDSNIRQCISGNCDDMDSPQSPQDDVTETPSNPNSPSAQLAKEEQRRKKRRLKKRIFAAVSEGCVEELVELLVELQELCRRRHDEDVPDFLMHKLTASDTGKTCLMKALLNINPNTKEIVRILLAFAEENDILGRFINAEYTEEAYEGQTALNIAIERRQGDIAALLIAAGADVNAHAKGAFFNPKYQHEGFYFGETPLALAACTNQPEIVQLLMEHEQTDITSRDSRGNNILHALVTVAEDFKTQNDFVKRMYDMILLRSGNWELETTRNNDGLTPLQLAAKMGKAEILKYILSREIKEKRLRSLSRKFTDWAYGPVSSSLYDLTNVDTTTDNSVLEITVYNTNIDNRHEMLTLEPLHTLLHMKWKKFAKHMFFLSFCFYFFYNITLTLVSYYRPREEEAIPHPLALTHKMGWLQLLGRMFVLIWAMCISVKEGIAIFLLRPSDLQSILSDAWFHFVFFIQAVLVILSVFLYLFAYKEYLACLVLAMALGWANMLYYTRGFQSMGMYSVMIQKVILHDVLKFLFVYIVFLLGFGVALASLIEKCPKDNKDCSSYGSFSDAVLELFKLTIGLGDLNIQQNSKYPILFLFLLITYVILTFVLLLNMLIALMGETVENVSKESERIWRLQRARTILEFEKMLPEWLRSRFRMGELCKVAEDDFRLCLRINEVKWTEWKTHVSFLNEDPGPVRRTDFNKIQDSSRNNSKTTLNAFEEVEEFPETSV

[7] = molecular target: T5, Transient receptor potential cation channel subfamily V member 3 (Homo sapiens) (UniProt Q8NET8); test: Agonist activity at ionomycin-stimulated TRPV3 (unknown origin) activation assessed as efficacy relative to control
T5 sequence (whole entry): T4 sequence (Q8NET8 whole entry)

[8] = molecular target: T4, Transient receptor potential cation channel subfamily V member 3; test: Agonist activity at ionomycin-stimulated TRPV3 (unknown origin) channel desensitization in presence of carvacrol
[9] = molecular target: T6, Transient receptor potential cation channel subfamily V member 4 (Homo sapiens, UniProt Q9HBA0); test: Agonist activity at ionomycin-stimulated TRPV4 (unknown origin) activation
T6 sequence (Q9HBA0 whole entry): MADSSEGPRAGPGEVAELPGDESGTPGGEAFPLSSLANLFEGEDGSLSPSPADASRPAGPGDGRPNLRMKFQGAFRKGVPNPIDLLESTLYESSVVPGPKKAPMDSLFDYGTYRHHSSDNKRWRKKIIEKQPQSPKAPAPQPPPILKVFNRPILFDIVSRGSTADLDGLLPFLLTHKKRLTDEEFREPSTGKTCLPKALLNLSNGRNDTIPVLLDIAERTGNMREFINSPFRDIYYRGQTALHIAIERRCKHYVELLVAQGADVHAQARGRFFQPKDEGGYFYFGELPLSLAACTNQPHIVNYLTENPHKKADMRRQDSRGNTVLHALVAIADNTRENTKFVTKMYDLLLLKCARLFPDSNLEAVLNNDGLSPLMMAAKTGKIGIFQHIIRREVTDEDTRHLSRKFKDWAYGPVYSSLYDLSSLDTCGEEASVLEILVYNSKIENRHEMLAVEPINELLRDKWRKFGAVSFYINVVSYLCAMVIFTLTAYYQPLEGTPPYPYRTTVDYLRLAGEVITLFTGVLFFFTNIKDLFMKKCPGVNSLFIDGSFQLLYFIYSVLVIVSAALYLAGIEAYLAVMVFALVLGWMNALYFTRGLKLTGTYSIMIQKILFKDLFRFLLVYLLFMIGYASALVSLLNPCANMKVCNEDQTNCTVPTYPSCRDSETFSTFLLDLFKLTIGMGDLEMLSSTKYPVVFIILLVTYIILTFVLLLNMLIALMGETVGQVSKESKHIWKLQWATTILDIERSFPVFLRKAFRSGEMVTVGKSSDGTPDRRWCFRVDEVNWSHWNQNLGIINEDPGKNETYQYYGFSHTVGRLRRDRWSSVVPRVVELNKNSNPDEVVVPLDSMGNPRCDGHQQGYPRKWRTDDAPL

[10] = molecular target: T6, Transient receptor potential cation channel subfamily V member 4; test: Agonist activity at ionomycin-stimulated TRPV4 (unknown origin) activation assessed as efficacy relative to control
[11] = molecular target: T6, Transient receptor potential cation channel subfamily V member 4; test: Agonist activity at ionomycin-stimulated TRPV4 (unknown origin) channel desensitization in presence of 4alphaPDD
[12] = molecular target: T7, Transient receptor potential cation channel subfamily A member 1 (Homo sapiens, UniProt O75762); test: Agonist activity at TRPA1 (unknown origin) activation
T7 sequence (O75762 whole entry): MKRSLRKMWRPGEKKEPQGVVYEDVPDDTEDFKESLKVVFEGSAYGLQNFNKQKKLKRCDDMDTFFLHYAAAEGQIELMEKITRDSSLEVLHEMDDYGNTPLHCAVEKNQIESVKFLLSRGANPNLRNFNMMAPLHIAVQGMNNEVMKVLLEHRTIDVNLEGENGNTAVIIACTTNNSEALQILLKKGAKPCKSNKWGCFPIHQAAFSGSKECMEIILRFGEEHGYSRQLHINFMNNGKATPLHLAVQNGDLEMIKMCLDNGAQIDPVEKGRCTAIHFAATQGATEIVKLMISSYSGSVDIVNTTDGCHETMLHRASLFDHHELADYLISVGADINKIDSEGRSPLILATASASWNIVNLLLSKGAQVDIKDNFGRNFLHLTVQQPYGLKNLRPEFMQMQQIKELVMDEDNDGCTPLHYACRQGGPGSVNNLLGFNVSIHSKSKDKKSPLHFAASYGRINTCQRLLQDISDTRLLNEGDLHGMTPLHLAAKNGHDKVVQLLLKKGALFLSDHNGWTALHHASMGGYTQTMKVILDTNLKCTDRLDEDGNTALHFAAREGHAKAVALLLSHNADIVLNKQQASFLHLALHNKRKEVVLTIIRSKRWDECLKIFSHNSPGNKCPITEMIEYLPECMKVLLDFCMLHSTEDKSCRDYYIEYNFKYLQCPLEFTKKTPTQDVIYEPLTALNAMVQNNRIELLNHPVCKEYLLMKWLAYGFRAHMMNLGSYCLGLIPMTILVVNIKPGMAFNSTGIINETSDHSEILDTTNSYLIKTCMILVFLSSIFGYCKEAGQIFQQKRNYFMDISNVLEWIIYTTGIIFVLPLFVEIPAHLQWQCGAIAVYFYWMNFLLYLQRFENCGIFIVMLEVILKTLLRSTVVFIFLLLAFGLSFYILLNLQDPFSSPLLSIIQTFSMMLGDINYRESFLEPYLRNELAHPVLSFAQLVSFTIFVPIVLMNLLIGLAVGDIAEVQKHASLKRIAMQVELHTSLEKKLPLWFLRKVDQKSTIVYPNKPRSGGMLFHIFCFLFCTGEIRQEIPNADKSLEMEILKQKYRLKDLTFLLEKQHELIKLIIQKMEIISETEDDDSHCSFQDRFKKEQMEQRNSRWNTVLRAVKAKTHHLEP

[13] = molecular target: T7, Transient receptor potential cation channel subfamily A member 1; test: Agonist activity at TRPA1 (unknown origin) activation assessed as efficacy relative to control; details: filed as agonist
[14] = molecular target: T7, Transient receptor potential cation channel subfamily A member 1; test: Agonist activity at TRPA1 (unknown origin) channel desensitization in presence of isothiocyanate
[15] = molecular target: Transient receptor potential cation channel subfamily M member 8 (Homo sapiens, UniProt Q7Z2W7); test: Antagonist activity at TRPM8 (unknown origin) ion channel
Transient receptor potential cation channel subfamily M member 8, sequence (Q7Z2W7 whole entry): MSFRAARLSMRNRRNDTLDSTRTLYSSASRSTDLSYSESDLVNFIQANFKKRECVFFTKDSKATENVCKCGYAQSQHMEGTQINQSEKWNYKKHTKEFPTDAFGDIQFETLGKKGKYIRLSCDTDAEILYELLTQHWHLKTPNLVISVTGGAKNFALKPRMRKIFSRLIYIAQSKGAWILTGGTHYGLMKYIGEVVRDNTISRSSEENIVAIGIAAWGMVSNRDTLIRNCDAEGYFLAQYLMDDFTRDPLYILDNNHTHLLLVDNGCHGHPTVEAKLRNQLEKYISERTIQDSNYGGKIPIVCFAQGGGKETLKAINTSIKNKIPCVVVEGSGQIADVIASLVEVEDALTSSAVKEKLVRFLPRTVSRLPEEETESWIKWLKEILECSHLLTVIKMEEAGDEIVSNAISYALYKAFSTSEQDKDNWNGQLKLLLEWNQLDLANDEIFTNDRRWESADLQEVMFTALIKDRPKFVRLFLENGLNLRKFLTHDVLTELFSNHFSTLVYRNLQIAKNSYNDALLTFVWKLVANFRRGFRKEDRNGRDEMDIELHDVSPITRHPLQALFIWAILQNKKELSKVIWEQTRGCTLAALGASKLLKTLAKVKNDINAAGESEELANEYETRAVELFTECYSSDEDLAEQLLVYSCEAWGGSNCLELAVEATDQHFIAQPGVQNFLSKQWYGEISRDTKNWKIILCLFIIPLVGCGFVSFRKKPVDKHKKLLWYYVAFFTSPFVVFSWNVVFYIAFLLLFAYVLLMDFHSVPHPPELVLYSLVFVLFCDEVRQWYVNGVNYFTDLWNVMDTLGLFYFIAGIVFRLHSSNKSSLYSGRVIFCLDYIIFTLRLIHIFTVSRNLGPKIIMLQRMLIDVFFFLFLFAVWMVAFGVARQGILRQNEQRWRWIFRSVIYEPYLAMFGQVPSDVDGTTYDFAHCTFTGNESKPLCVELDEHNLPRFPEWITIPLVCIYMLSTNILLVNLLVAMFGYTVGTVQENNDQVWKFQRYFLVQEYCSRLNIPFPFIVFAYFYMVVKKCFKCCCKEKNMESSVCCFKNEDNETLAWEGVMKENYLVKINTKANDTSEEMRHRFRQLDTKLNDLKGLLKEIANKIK

[16] = molecular target: T3, Transient receptor potential cation channel subfamily V member 2; test: Agonist activity at ionomycin-stimulated TRPV2 (unknown origin) activation
[17] = molecular target: T7, Transient receptor potential cation channel subfamily A member 1; test: Agonist activity at TRPA1 (unknown origin) channel desensitization in presence of icilin

T1 sequence (Q8NER1 whole entry): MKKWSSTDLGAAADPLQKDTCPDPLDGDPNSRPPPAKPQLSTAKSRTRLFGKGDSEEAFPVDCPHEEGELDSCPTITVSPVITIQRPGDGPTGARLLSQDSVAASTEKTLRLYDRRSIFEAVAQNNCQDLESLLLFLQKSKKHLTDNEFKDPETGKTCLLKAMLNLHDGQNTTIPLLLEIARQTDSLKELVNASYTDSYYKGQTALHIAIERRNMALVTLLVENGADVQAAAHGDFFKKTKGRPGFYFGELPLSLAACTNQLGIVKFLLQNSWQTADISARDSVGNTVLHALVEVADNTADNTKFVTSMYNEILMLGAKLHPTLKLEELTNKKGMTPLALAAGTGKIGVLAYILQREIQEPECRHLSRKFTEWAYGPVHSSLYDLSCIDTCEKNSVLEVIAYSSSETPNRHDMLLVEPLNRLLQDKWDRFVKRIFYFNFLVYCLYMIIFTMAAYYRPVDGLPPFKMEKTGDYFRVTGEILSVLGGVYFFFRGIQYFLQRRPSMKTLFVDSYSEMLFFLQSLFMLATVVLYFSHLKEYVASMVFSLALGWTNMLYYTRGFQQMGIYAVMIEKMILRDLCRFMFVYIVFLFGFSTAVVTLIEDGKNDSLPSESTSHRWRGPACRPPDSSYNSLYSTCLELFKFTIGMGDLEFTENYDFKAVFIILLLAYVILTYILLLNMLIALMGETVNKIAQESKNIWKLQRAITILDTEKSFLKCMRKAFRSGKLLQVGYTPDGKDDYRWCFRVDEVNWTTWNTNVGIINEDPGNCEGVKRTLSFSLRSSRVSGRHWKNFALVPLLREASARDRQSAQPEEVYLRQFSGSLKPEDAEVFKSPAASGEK

Structure (SMILES)	pEC50 [1]	Efficacy [2]	pIC50 [3]	Efficacy [4]	pIC50 [5]	pEC50 [6]	Efficacy [7]	pIC50 [8]	pEC50 [9]	Efficacy [10]	pIC50 [11]	pEC50 [12]	Efficacy [13]	pIC50 [14]	pIC50 [15]	Efficacy ([2]; filed as agonist)	pEC50 [16]	Efficacy ([4]; filed as agonist)	Efficacy ([7]; filed as agonist)	pIC50 [17]
CCCCCc1cc(O)c2c(c1)OC(C)(CCC=C(C)C)C=C2 (stereo not given) [CANNABICHROMENE]	4.62	< 10%	< 4.30	< 10%	5.19	5.72	20%	3.70	6.22	23%	5.00	7.05	119%	6.43	4.39					
CCCc1cc(O)c2c(c1)OC(C)(C)c1ccc(C)cc1-2			4.92		5.66	5.46		5.80	5.14	37%	5.40	6.70	123%	6.77		50%	5.51	79%	78%	6.30
